Format in all cases: cell-based
For test [1], the system named is human islets. The test can be described thus: Immunohistochemical staining of cultured human islets. The note with it: islets in culture for 2 months, Isx for 2 days (FIG. 1E). The procedure:
(§1) FIGS. 1A-E. Isx (LSH-1) induces expression of insulin and transcription factors in primary cultured human islets. (FIG. 1A) Primary human islets that had been cultured in RPMI 160 for 6 months were treated with vehicle or 40 μM Isx for 1 or 2 d. Expression of human insulin and glucagon genes was assessed by Taqman quantitative RT-PCR. (FIG. 1B) Insulin secretion measured by ELISA over 24 h from islets treated with Isx or vehicle for 1 or 2 d. (FIG. 1C) Total insulin content of islets cultured for 3 mo and fresh islets, each treated for 48 h with Isx or DMSO. (FIG. 1D) Time course of pancreatic gene induction in islets cultured for 1 year treated with DMSO (8 days) or 40 μM Isx for 2, 4 or 8 days. (FIG. 1E) Immunohistochemical staining using antibodies against insulin, BETA2, Neurogenin3 (Ngn3) and MafA of islets cultured for 2 months and treated with Isx or vehicle for 48 h. Nuclei were stained with DAPI.

Test [2] relates to human islets. In words: Gene expression by quantitative RT-PCR in cultured human islets. The procedure:
(§2) MIN6 cells were cultured in DMEM (Gibco), containing 25 mM glucose, 10% fetal bovine serum, 10 mM Hepes pH 7.4, 10.2 mM L-glutamine, […] sodium pyruvate, 2.5 mM β-mercaptoethanol, 100 U/ml penicillin and 100 μg/ml streptomycin at 37° C. in 10% CO2. Human islets were obtained from the ICR Basic Science Islet Distribution and from the University of Alabama, Birmingham Islet Resource Facility and were cultured in RPMI 1640 with 11 mM glucose for up to 1 year. The medium was changed twice weekly and the islets were subcultured when they reached 90% confluence. For Isx treatments, cells were incubated in medium containing either Isx or the equivalent volume of DMSO vehicle (0.04%). To measure GSIS, cells were placed in Krebs-Ringer bicarbonate/Hepes containing 0.1% bovine serum albumin and 2 mM glucose for 2 h, and stimulated for 15 min with 20 mM glucose, a 1× amino-acid mixture (concentrations as in DMEM), or 50 nM Exendin-4. U0126 (10 μM), nifedipine (3 μM), BAPTA (10 μM), wortmanin (0.5 μM) or FK506 (0.1 μM) were added for 1-24 h as indicated.
Total RNA was extracted from human islet preparations with TRI reagent according to manufacturer's protocol (Ambion). cDNA was prepared from total RNA by a mixture of random hexamer- and oligo-dT-primed reverse transcription (iScript Biorad). The expression of insulin and glucagon relative to 18S RNA was evaluated by TaqMan assays (Applied Biosystems). Relative expression of pancreatic factors was determined using Power SYBR Green PCR Master Mix (Applied Bio systems). Primer sequences for qRT-PCR are in STable 1. SYBR Green and TaqMan probe-based PCR was performed using the ABI 7500 DNA Sequence Detection System with standard fluorescent chemistries and thermal cycling conditions specified by the manufacturer: 50° C. for 2 min, 95° C. for 10 min for one cycle and an additional 40 cycles at 95° C. for 15 sec, and then 58° C. for 1 min.

For test [3], the system named is BETA2. The test can be described thus: Acetylation of BETA2 (anti-myc immunoprecipitates, anti-acetyl lysine immunoblot). The note with it: cells overexpressing myc-BETA2 (FIG. 3C). As for the experimental part: FIGS. 3A-E. Isx (LSH-1) activates transcription factors that regulate insulin gene expression and insulin production. (FIG. 3A) Insulin promoter reporter activity in HEK293 cells transfected with BETA2, MafA, PDX-1, or (FIG. 3B) WT MafA or mutant MafA, treated with Isx or vehicle for 24 h. (FIG. 3C) Immunoblotting of anti-myc immunoprecipates using anti-acetyl lysine (Ac-K) and anti-BETA2 from cells overexpressing myc-BETA2. (FIG. 3D) Chromatin immunoprecipitation (ChIP) analysis of MafA and BETA2 (FIG. 3E) association with the insulin promoter in MIN6 cells in response to a 10-min glucose stimulation.
For orientation: In western blotting, separated proteins are transferred to a membrane and probed.

Test [4] relates to human islets. In words: Insulin secretion and insulin content (ELISA) of cultured human islets. The procedure: as §1
FIGS. 5A-E. Gene expression induced by Isx (LSH-1) in human islet cultures. (FIG. 5A) Structure of the lead compound N-cyclopropyl-5-(thiophen-2-yl)isoxazole-3-carboxamide (Isx) used in this study. (FIG. 5B) Expression profiles of relevant islet factors by Sybr-Green qPCR analyses from human islets cultured for 1 year as in FIG. 1D. (FIG. 5C) Insulin immunohistochemical staining in human islets cultured for 2 months. Nuclei are stained with DAPI. (FIG. 5D) Immunoblotting of whole cell extracts from human islets cultured for six months treated with vehicle (DMSO) or Isx for 24 h. (FIG. 5E) Human islets cultured for 6 months were treated with DMSO (Veh) or Isx for 48 h. To implicate signaling pathways that are required for the isoxazole-driven increase in β cell function, measured as GSIS, the isoxazole-treated islets were also treated with vehicle (Veh), 10 μM U0126 (U), 10 μM Nifedipine-BAPTA (N-B), or 0.1 μM wortmannin (W) for the duration of the isoxazole treatment.
as §2, with “To measure GSIS, cells were placed in Krebs-Ringer bicarbonate/Hepes containing 0.1% bovine serum albumin and 2 mM glucose for 2 h, and stimulated for 15 min with 20 mM glucose, a 1× amino-acid mixture (concentrations as in DMEM), or 50 nM Exendin-4. U0126 (10 μM), nifedipine (3 μM), BAPTA (10 μM), wortmanin (0.5 μM) or FK506 (0.1 μM) were added for 1-24 h as indicated.” left out

The mark [5] stands for this setting: human islets in culture for 6 months, Isx for 1-2 days (40 μM, FIG. 1A).
The mark [6] stands for this setting: islets in culture for one year, 40 μM Isx 2-8 days.

The structures appear in SMILES notation.

Take `O=C(NC1CC1)c1cc(-c2cccs2)on1` [Isx, N-cyclopropyl-5-(thiophen-2-yl)isoxazole-3-carboxamide]: the “Ngn3, BETA2, and insulin immunostaining” value in test [1] is recorded as “obvious increase”. In addition, in test [2] (setting [5]), the “glucagon mRNA decrease” value was around 80% and the “preproinsulin mRNA” value was “large increase”. The “PCNA and Oct4 mRNA expression” value in test [2] (islets in culture for one year) is “Neither PCNA, an indicator of proliferation, nor Oct4, a factor associated with stem cells, showed consistent or substantial changes in mRNA expression”. Also, in test [2] (setting [6]), the “increases in PDX-1, the Hnfs, and Isl1 mRNA” value was “relatively small”; the “increases in the other factors (mRNA; other than PDX-1, the Hnfs, Isl1)” value is given as “more than 10 fold”. Moreover, the “Preproinsulin mRNA increase” value in test [2] (islets in culture for one year, after several days of Isx exposure (FIG. 1D)) is listed as at least 50 fold. Besides, the “Preproinsulin mRNA increase” value in test [2] (islets in culture for one year, at 24 h (FIG. 1D)) came to 10 fold. Besides, the “expression of glucokinase and Glut2” value in test [2] (islets in culture for one year, peaking after 4 days of exposure) is on record as “increased markedly”. In addition, the “acetylation of BETA2” value in test [3] is reported as “more strongly than the HDAC inhibitor sodium butyrate”. Besides, the “increase of insulin content of fresh islets” value in test [4] (2-day exposure to Isx) is given as around 25%. In addition, in test [4] (3 month-old islets treated with Isx (FIG. 1C)), the “Insulin content relative to the insulin content of islets isolated only 1 week earlier” value is recorded as around 75%. In test [4] (3 month-old islets, Isx 48 h (FIG. 1C)), this compound came in with an Insulin content increase of around 10 fold. Further, in test [4] (human islets in culture for 6 months, Isx 1 or 2 d (FIG. 1B)), the “Insulin secreted over a 24-h period” value is on record as “markedly increased”.

Source of the values: US9221800B2, “Isoxazole treatments for diabetes” (The Board of Regents of the University of Texas System, priority 2011, dated 2015).
